According to patent publication US20260317546A1, “PRETARGETED BIMODAL IMAGING AGENTS” (KØBENHAVNS UNIVERSITET, priority 2023, published 2026):

Assays:
[1] = test system: anti-TAG72 mAb CC49 modified with TCO-tags (CC49-TCO) in LS174T tumor xenografts
Method: This assay employs anti-TAG72 mAb CC49 modified with TCO-tags (CC49-TCO) and [111In]In-DOTA-PEG11-BisPy-Tz (FIG. 1) with well-established performance in pretargeted imaging of TAG72 expressing LS174 tumor xenografts.
LS174T xenograft-bearing mice are injected with CC49-TCO. After allowing for accumulation for 72 h, the tetrazine to be evaluated is injected via the tail vein, followed by [111In]In-DOTA-PEG11-BisPy-Tz after 1 h. in vivo performance of the tetrazine to be evaluated can therefore be correlated to tumor uptake of [111In]In-DOTA-PEG11-BisPy-Tz after 22 h. Increased in vivo performance is reflected by lower tumor uptake (see FIG. 1).
Further, a negative control (−C) and a positive control (+C) are included.

[2] = test system: TCO-modified CC49 (CC49-TCO) targeting TAG-72 in human colorectal cancer LS174T xenograft tumors; assay: Pretargeted fluorescence imaging, ex vivo fluorescence measurements of selected organs; format: in vivo, Balb/c nude mice; conditions: TCO-modified CC49 vs non-modified CC49 (control); compound 8 i.v. 72 h after antibody, 86.5 μg, 116.7 nmol; 1 h post injection; 488 nm excitation, 525/20 emission
Method: Pretargeted imaging of compound 8 of Example 1 was tested in vivo.
Pretargeted imaging of compound 8 of Example 1 was tested in vivo using the monoclonal antibody CC49 targeting TAG-72 in human colorectal cancer LS174T xenograft tumors. Tumors were established in 7-8 week old Balb/c nude mice and after 10 days, the animals were injected i.v. with either 50 μg (0.33 nmol) TCO-modified CC49 (CC49-TCO, ~3.5 TCO/mAb), or non-modified CC49 (control) (n=3 per group). After 72 hours, compound 8 (~100 equivalents per TCO, 86.5 μg, 116.7 nmol) in 100 μL of PBS (pH=7.4) was injected i.v.. One hour post injection, selected organs were harvested for ex vivo fluorescence measurements using a Amersham Typhoon 5 laser scanner platform (GE healthcare Europe) using a 488 nm excitation laser and 525/20 emission filter.

SMILES	blocking effect [1] [%]	fluorescence in tumor (ex vivo) [2]
CC1=CC(C)=[N+]2C1=C(c1ccnc(-c3nnc(-c4ccc(CN(CC(=O)O)CC(=O)O)cn4)nn3)c1)c1c(C)cc(C)n1[B-]2(F)F [Compound 7, 2,2′-(((6-(6-(4-(5,5-difluoro-1,3,7,9-tetramethyl-5H-4λ4,5λ4-dipyrrolo[1,2-c:2′,1′-f][1,3,2]diazaborinin-10-yl)pyridin-2-yl)-1,2,4,5-tetrazin-3-yl)pyridin-3-yl)methyl)azanediyl)diacetic acid]	93	–
CC1=CC(C)=[N+]2C1=C(c1ccc(-c3nnc(-c4ccc(CN(CC(=O)O)CC(=O)O)cn4)nn3)nc1)c1c(C)cc(C)n1[B-]2(F)F [Compound 8, 2,2′-(((6-(6-(5-(5,5-difluoro-1,3,7,9-tetramethyl-5H-4λ4,5λ4-dipyrrolo[1,2-c:2′,1′-f][1,3,2]diazaborinin-10-yl)pyridin-2-yl)-1,2,4,5-tetrazin-3-yl)pyridin-3-yl)methyl)azanediyl)diacetic acid]	98	higher fluorescence in tumor
